Consider 17 molecules from patent US20160272617A1, “SUBSTITUTED PHENYLALANINE DERIVATIVES” (BAYER PHARMA AKTIENGESELLSCHAFT, priority 2013, published 2016).

Structures can show the parent of a compound that is named as a salt.

The target in assay [1] is T1, human factor XIa (Homo sapiens, UniProt P03951).
T1 construct: purchased Kordia
Briefly: Measurement of FXIa inhibition (fluorogenic peptide substrate Boc-Glu(OBzl)-Ala-Arg-AMC). As to conditions: factor XIa from Kordia, 15 min preincubation, 30 min at 22° C., fluorescence. Type of assay: biochemical. In a few lines: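 Released AMC fluorescence (360/460 nm) read after 30 min at 22 °C. The reaction was started with Boc-Glu(OBzl)-Ala-Arg-AMC (10 μM stock) after a 15 min preincubation of the enzyme (0.45 nM stock) with compound (final 50 μM to 0.00013 μM).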

Assay [2] deals with human and animal plasma. Put plainly: Determination of anticoagulatory activity: activated partial thromboplastin time (aPTT) in plasma. The following applies: concentration of test substance which brings about a 1.5-fold extension of the aPTT; plasma species not given. The method, then:
The anticoagulatory activity of the test substances is determined in vitro in human and animal plasma (for example mouse, rat, rabbit, pig and dog plasma). To this end, blood is drawn off in a mixing ratio of sodium citrate/blood of 1:9 using a 0.11 molar sodium citrate solution as receiver. Immediately after the blood has been drawn off, it is mixed thoroughly and centrifuged at about 4000 g for 15 minutes. The supernatant is pipetted off.
The activated partial thromboolastin time (aPTT) is determined in the presence of varying concentrations of test substance or the corresponding solvent using a commercial test kit (C. K. Prest from Diagnostica Stago). The test compounds are incubated with the plasma and the PTT reagent (cephalin, kaolin) at 37° C. for 3 minutes. Coagulation is then started by addition of a 25 mM aqueous calcium chloride solution, and the time when coagulation occurs is determined. The concentration of test substance which brings about a 1.5-fold extension of the aPTT is determined.

T1 sequence (P03951 388-625 limits assumed): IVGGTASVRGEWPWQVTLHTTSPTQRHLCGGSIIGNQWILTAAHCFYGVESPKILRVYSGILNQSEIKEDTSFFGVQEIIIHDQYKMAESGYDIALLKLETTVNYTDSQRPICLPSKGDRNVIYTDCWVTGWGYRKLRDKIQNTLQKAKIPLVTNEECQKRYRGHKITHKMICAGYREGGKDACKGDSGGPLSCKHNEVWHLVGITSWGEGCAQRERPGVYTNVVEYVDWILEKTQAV
T1 sequence (P03951 19-387 partner limits assumed): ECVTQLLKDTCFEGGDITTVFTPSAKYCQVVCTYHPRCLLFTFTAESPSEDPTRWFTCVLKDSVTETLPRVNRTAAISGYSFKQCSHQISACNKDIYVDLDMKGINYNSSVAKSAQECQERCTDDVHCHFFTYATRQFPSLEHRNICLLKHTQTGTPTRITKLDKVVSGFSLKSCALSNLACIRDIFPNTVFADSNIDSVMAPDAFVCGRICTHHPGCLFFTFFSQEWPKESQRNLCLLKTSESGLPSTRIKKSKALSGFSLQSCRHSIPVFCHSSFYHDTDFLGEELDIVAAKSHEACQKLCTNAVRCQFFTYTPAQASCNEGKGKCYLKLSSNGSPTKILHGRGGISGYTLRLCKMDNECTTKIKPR

Turning to `CCN(CC)CCCNC(=O)c1ccc(-c2ccc(C[C@H](NC(=O)[C@H]3CC[C@H](CN)CC3)C(=O)Nc3ccc(-c4nn[nH]n4)cc3)cc2)c(C)c1` [Example 29, 4′-[(2S)-2-({[trans-4-(Aminomethyl)cyclohexyl]carbonyl}amino)-3-oxo-3-{[4-(2H-tetrazol-5-yl)phenyl]amino}propyl]-N-[3-(diethylamino)propyl]-2-methylbiphenyl-4-carboxamide hydrochloride], in assay [1], half-maximal inhibition (IC50) was put at 3 nM. In assay [2], the “aPTT” value is 0.14 µmol/L.

For `CC1CC(NC(=O)c2ccc(-c3ccc(C[C@H](NC(=O)[C@H]4CC[C@H](CN)CC4)C(=O)Nc4ccc(-c5nn[nH]n5)cc4)cc3)c(Cl)c2)CCN1` (stereo partly drawn) [Example 30, 4′-[(2S)-2-({[trans-4-(Aminomethyl)cyclohexyl]carbonyl}amino)-3-oxo-3-{[4-(2H-tetrazol-5-yl)phenyl]amino}propyl]-2-chloro-N-(2-methylpiperidin-4-yl)biphenyl-4-carboxamide hydrochloride], in assay [1], it took 3.2 nM to reach half-maximal inhibition (IC50). Further, the “aPTT” value in assay [2] came out at 0.12 µmol/L.

Take `Cc1cc(C(=O)NC2CCNC(C)C2)ccc1-c1ccc(C[C@H](NC(=O)[C@H]2CC[C@H](CN)CC2)C(=O)Nc2ccc3c(=O)[nH][nH]c3c2)cc1` (stereo partly drawn) [Example 31, 4′-{(2S)-2-({[trans-4-(Aminomethyl)cyclohexyl]carbonyl}amino)-3-oxo-3-[(3-oxo-2,3-dihydro-1H-indazol-6-yl)amino]propyl}-2-methyl-N-(2-methylpiperidin-4-yl)biphenyl-4-carboxamide hydrochloride]: inhibition in assay [1] was half-maximal at 30 nM (IC50). In addition, in assay [2], the “aPTT” value amounted to 0.22 µmol/L.

With `Cc1cc(C(=O)NC2CCNC(C)C2)ccc1-c1ccc(C[C@H](NC(=O)[C@H]2CC[C@H](CN)CC2)C(=O)Nc2ccc(-c3nn[nH]n3)cc2)cc1` (stereo partly drawn) [Example 32, 4′-[(2S)-2-({[trans-4-(Aminomethyl)cyclohexyl]carbonyl}amino)-3-oxo-3-{[4-(2H-tetrazol-5-yl)phenyl]amino}propyl]-2-methyl-N-(2-methylpiperidin-4-yl)biphenyl-4-carboxamide hydrochloride], the concentration for half-maximal inhibition (IC50) – broadly, the point on the concentration scale where inhibition reaches its midpoint – in assay [1] amounted to 3.4 nM. For the same molecule, the “aPTT” value in assay [2] stood at 0.09 µmol/L.

`Cc1cc(C(=O)N[C@H]2CC[C@H](O)CC2)ccc1-c1ccc(C[C@H](NC(=O)[C@H]2CC[C@H](CN)CC2)C(=O)Nc2ccc(-c3nn[nH]n3)cc2)cc1` [Example 33, 4′-[(2S)-2-({[trans-4-(Aminomethyl)cyclohexyl]carbonyl}amino)-3-oxo-3-{[4-(2H-tetrazol-5-yl)phenyl]amino}propyl]-N-(trans-4-hydroxycyclohexyl)-2-methylbiphenyl-4-carboxamide hydrochloride] yielded an IC50 in assay [1] of 0.78 nM. Further, the “aPTT” value in assay [2] was found to be 0.11 µmol/L.

`Cc1cc(C(=O)N[C@H]2CC[C@H](N)CC2)ccc1-c1ccc(C[C@H](NC(=O)[C@H]2CC[C@H](CN)CC2)C(=O)Nc2ccc(-c3nn[nH]n3)cc2)cc1` [Example 34, N-(trans-4-Aminocyclohexyl)-4′-[(2S)-2-({[trans-4-(aminomethyl)cyclohexyl]carbonyl}amino)-3-oxo-3-{[4-(2H-tetrazol-5-yl)phenyl]amino}propyl]-2-methylbiphenyl-4-carboxamide hydrochloride]: the IC50 in assay [1] was 1.4 nM. For the same molecule, the “aPTT” value in assay [2] turned out to be 0.11 µmol/L.

`Cc1cc(C(=O)NCCCN(C)C)ccc1-c1ccc(C[C@H](NC(=O)[C@H]2CC[C@H](CN)CC2)C(=O)Nc2ccc(-c3nn[nH]n3)cc2)cc1` [Example 35, 4′-[(2S)-2-({[trans-4-(Aminomethyl)cyclohexyl]carbonyl}amino)-3-oxo-3-{[4-(2H-tetrazol-5-yl)phenyl]amino}propyl]-N-[3-(dimethylamino)propyl]-2-methylbiphenyl-4-carboxamide hydrochloride] had a 50% inhibitory concentration (IC50) in assay [1] of 2.3 nM. In addition, in assay [2], the “aPTT” value came out at 0.11 µmol/L.

For the molecule `Cc1cc(C(=O)NC2CCNCC2)ccc1-c1ccc(C[C@H](NC(=O)[C@H]2CC[C@H](CN)CC2)C(=O)Nc2ccc(-c3nn[nH]n3)cc2)cc1` [Example 36, 4′-[(2S)-2-({[trans-4-(Aminomethyl)cyclohexyl]carbonyl}amino)-3-oxo-3-{[4-(2H-tetrazol-5-yl)phenyl]amino}propyl]-2-methyl-N-(piperidin-4-yl)biphenyl-4-carboxamide], 1.7 nM corresponded to half-maximal inhibition in assay [1] (IC50). Besides, in assay [2], the “aPTT” value came out at 0.07 µmol/L.

`NC[C@H]1CC[C@H](C(=O)N[C@@H](Cc2ccc(-c3ccc(C(=O)NC4CCNCC4)cc3)cc2)C(=O)Nc2ccc(-c3nn[nH]n3)cc2)CC1` [Example 37, 4′-[(2S)-2-({[trans-4-(Aminomethyl)cyclohexyl]carbonyl}amino)-3-oxo-3-{[4-(2H-tetrazol-5-yl)phenyl]amino}propyl]-N-(piperidin-4-yl)biphenyl-4-carboxamide hydrochloride] showed a half-inhibitory concentration (IC50) in assay [1] of 8.5 nM. Besides, the “aPTT” value in assay [2] is 0.12 µmol/L.

With `CCN(CC)CCNC(=O)c1ccc(-c2ccc(C[C@H](NC(=O)[C@H]3CC[C@H](CN)CC3)C(=O)Nc3ccc(-c4nn[nH]n4)cc3)cc2)cc1` [Example 38, 4′-[(2S)-2-({[trans-4-(Aminomethyl)cyclohexyl]carbonyl}amino)-3-oxo-3-{[4-(2H-tetrazol-5-yl)phenyl]amino}propyl]-N-{2-[diethylamino]ethyl}biphenyl-4-carboxamide hydrochloride], the IC50 in assay [1] came out at 14 nM. In addition, the “aPTT” value in assay [2] turned out to be 0.42 µmol/L.

For the molecule `NC[C@H]1CC[C@H](C(=O)N[C@@H](Cc2ccc(-c3ccc(C(=O)N[C@@H]4CCNC4)cc3)cc2)C(=O)Nc2ccc(-c3nn[nH]n3)cc2)CC1` [Example 39, 4′-[(2S)-2-({[trans-4-(Aminomethyl)cyclohexyl]carbonyl}amino)-3-oxo-3-{[4-(2H-tetrazol-5-yl)phenyl]amino}propyl]-N-[(3R)-pyrrolidin-3-yl]biphenyl-4-carboxamide hydrochloride], the 50% inhibitory concentration (IC50) in assay [1] worked out at 9.8 nM. Moreover, in assay [2], the “aPTT” value came to 0.1 µmol/L.

On to `Cc1cc(C(=O)NC2CCN(C(C)C)CC2)ccc1-c1ccc(C[C@H](NC(=O)[C@H]2CC[C@H](CN)CC2)C(=O)Nc2ccc(-c3nn[nH]n3)cc2)cc1` [Example 40, 4′-[(2S)-2-({[trans-4-(Aminomethyl)cyclohexyl]carbonyl}amino)-3-oxo-3-{[4-(2H-tetrazol-5-yl)phenyl]amino}propyl]-N-(1-isopropylpiperidin-4-yl)-2-methylbiphenyl-4-carboxamide hydrochloride], for which the IC50 in assay [1] stood at 3.6 nM. The “aPTT” value in assay [2] was 0.11 µmol/L.

`Cc1cc(C(=O)NCC[N+](C)(C)C)ccc1-c1ccc(C[C@H](NC(=O)[C@H]2CC[C@H](CN)CC2)C(=O)Nc2ccc(-c3nn[nH]n3)cc2)cc1` [Example 41, 2-[({4′-[(2S)-2-({[trans-4-(Aminomethyl)cyclohexyl]carbonyl}amino)-3-oxo-3-({[4-(2H-tetrazol-5-yl)phenyl]amino}propyl]-2-methylbiphenyl-4-yl}carbonyl)amino]-N,N,N-trimethylethanaminium hydrochloride] yielded an IC50 in assay [1] of 6 nM. Also, the “aPTT” value in assay [2] is 0.18 µmol/L.

For the molecule `Cc1cc(C(=O)NC2CCN(C)CC2)ccc1-c1ccc(C[C@H](NC(=O)[C@H]2CC[C@H](CN)CC2)C(=O)Nc2ccc(-c3nn[nH]n3)cc2)cc1` [Example 42, 4′-[(2S)-2-({[trans-4-(Aminomethyl)cyclohexyl]carbonyl}amino)-3-oxo-3-{[4-(2H-tetrazol-5-yl)phenyl]amino}propyl]-2-methyl-N-(1-methylpiperidin-4-yl)biphenyl-4-carboxamide hydrochloride], 3.6 nM corresponded to half-maximal inhibition in assay [1] (IC50). The “aPTT” value in assay [2] was found to be 0.1 µmol/L.

`Cc1cc(C(=O)NC2C3CNCC32)ccc1-c1ccc(C[C@H](NC(=O)C2CCC(CN)CC2)C(=O)Nc2ccc(-c3nn[nH]n3)cc2)cc1` (stereo partly drawn) [Example 43, 4′-[(2S)-2-({[trans-4-(Aminomethyl)cyclohexyl]carbonyl}amino)-3-oxo-3-{[4-(2H-tetrazol-5-yl)phenyl]amino}propyl]-N-(3-azabicyclo[3.1.0]hex-6-yl)-2-methylbiphenyl-4-carboxamide hydrochloride]: the 50% inhibitory concentration (IC50) in assay [1] worked out at 3.3 nM. In addition, the “aPTT” value in assay [2] turned out to be 0.06 µmol/L.

`Cc1cc(C(=O)NC2CC3CCC(C2)N3C)ccc1-c1ccc(C[C@H](NC(=O)C2CCC(CN)CC2)C(=O)Nc2ccc(-c3nn[nH]n3)cc2)cc1` (stereo partly drawn) [Example 44, 4′-[(2S)-2-({[trans-4-(Aminomethyl)cyclohexyl]carbonyl}amino)-3-oxo-3-{[4-(2H-tetrazol-5-yl)phenyl]amino}propyl]-2-methyl-N-(8-methyl-8-azabicyclo[3.2.1]oct-3-yl)biphenyl-4-carboxamide hydrochloride] had an IC50 in assay [1] of 5.7 nM. The “aPTT” value in assay [2] was 0.11 µmol/L.

Molecule `NC[C@H]1CC[C@H](C(=O)N[C@@H](Cc2ccc(-c3ccc(C(=O)NC4CCNCC4)c(F)c3)cc2)C(=O)Nc2ccc(-c3nn[nH]n3)cc2)CC1` [Example 45, 4′-[(2S)-2-({[trans-4-(Aminomethyl)cyclohexyl]carbonyl}amino)-3-oxo-3-{[4-(2H-tetrazol-5-yl)phenyl]amino}propyl]-3-fluoro-N-(piperidin-4-yl)biphenyl-4-carboxamide hydrochloride] came in with an IC50 in assay [1] of 6.2 nM. Moreover, the “aPTT” value in assay [2] is 0.14 µmol/L.
